Data taken from patent publication US7820661B2, “Substituted gamma lactams as therapeutics agents” (Allergan, Inc., priority 2008, dated 2010).

Tested on: lashes and adjacent hairs (hair growth)
Experiment: Observation of lashes and adjacent hairs in glaucoma patients treated with bimatoprost in only one eye
Type: in vivo
Text: In the course of treating patients having glaucoma, treatment may only be appropriate in one eye. […] The lash appearance on the lids of the treated eyes would have appeared quite attractive if it represented a bilateral phenomenon. As a result of its asymmetric nature, the long lashes on one side could be construed as disturbing from a cosmetic standpoint. A systemic examination was preformed as a result of the asymmetric phenomenon. It soon became apparent that this altered appearance was not an isolated finding.
The changes in the lashes were apparent on gross inspection in several patients once attention was focused on the issue. In those with light colored hair and lashes, the differences were only seen easily with the aid of the high magnification and lighting capabilities of the slit lamp biomicroscope. In the course of glaucoma follow-up examination, attention is generally immediately focused on the eye itself. As a result of the high power magnification needed only one eye is seen at a time and the eye is seen at a high enough power that the lashes are not in focus. At these higher powers, any lash asymmetry between the two eyes is not likely to be noticed except by careful systematic comparison of the lashes and adjacent hairs of the eyelids of the two eyes. […]

CCNC(=O)CCC/C=C\C[C@@H]1[C@@H](/C=C/[C@@H](O)CCc2ccccc2)[C@H](O)C[C@@H]1O [bimatoprost]
differences in the lashes and adjacent hairs of the treated side (all patients taking the drug on a unilateral basis for longer than 6 months): Definite differences could be identified to varying degrees | appearance of lashes in the treated eye compared with the non-treated eye (glaucoma patient treated in one eye, treated vs non-treated eye): longer, thicker, and fuller
